Where a name gives a salt, the structure may show the parent alone.
Legend:
Type in all cases: physicochemical
[1] = solubility in lipid solvents (Example 1); conditions: ambient conditions, listed as ABT-263 bis-HCl salt;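 note: solubility in mg/g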
Method: Solubility of ABT-263 parent (free base, crystalline Form I) and ABT-263 bis-HCl salt was tested in a variety of lipid solvents and solvent mixtures in ambient conditions. “PE-91” is Phosal 53 MCT™+ethanol, 9:1 by volume. “LOT-343” is Labrafil M 1944 CS™+oleic acid+Tween 80™, 30:40:30 by weight.
In some cases, indicated in Table 4 by an asterisk (*), solubility was initially high but precipitation occurred upon standing.

[2] = drug solubility in ternary excipient systems (Example 2); set-up: key: ✓: vehicle miscible, or drug fully dissolved in vehicle; conditions: 10% salt, 20% free base
Source text: (§1) Solvents evaluated included Labrafil M 1944 CS™, Imwitor 742™ oleic acid, Capmul PG-8™, Capmul PG-12™, Lauroglycol 90™ and Phosal 53 MCT™. Surfactants evaluated included Tween™ 80, Cremophor RH40™, Gelucire 44/14™ and Labrasol™.

[3] = as above; set-up: key: ✓: vehicle miscible, or drug fully dissolved in vehicle; X: vehicle immiscible or miscible but turbid, or residual solids present (due to undissolved drug or precipitation); conditions: 10% salt, 20% free base
Source text: as §1

Question: Which Solubility ([1]; in Capmul MCM) does the source give for `CC1(C)CCC(c2ccc(Cl)cc2)=C(CN2CCN(c3ccc(C(=O)NS(=O)(=O)c4ccc(N[C@H](CCN5CCOCC5)CSc5ccccc5)c(S(=O)(=O)C(F)(F)F)c4)cc3)CC2)C1` [ABT-263 bis-HCl] here?
Answer: Its Solubility is greater than 321 mg/g.

Question: What about the Solubility ([1]; in Capmul PG-8) of the same compound?
Answer: Its Solubility is less than 43 mg/g.

Question: And the Solubility ([1]; in Capmul PG-12)?
Answer: Its Solubility is less than 39 mg/g.

Question: And the Solubility ([1]; in Captex 300)?
Answer: Its Solubility is less than 52 mg/g.

Question: What about the Solubility ([1]; in Imwitor 742) of the same compound?
Answer: The Solubility was greater than 245 mg/g.

Question: What about the Solubility ([1]; in Labrafil M 1944 CS) of the same compound?
Answer: The Solubility was less than 45 mg/g.

Question: What about the Solubility ([1]; in Labrafil M 2125 CS) of the same compound?
Answer: Its Solubility is less than 44 mg/g.

Question: What about the Solubility ([1]; in Labrasol) of the same compound?
Answer: Its Solubility is greater than 292 mg/g.

Question: What about the Solubility ([1]; in Lipoid S75 MCT) of the same compound?
Answer: Its Solubility is 48.9 mg/g.

Question: And the Solubility ([1]; in Miglyol 810)?
Answer: The Solubility was less than 84 mg/g.

Question: And the Solubility ([1]; in PE-91 (Phosal 53 MCT+ethanol 9:1 by volume))?
Answer: Its Solubility is 89 mg/g.

Question: What about the Solubility ([1]; in PEG-400) of the same compound?
Answer: Its Solubility is greater than 278 mg/g.

Question: What about the Solubility ([1]; in Tween 20) of the same compound?
Answer: Its Solubility is greater than 176 mg/g.

Question: And the Solubility ([1]; in Tween 80)?
Answer: Its Solubility is greater than 125 mg/g.

Question: What about the Solubility ([1]; in castor oil) of the same compound?
Answer: The Solubility was greater than 78.8 mg/g.

Question: And the Solubility ([1]; in corn oil)?
Answer: Its Solubility is less than 104 mg/g.

Question: What about the Solubility ([1]; in oleic acid) of the same compound?
Answer: Its Solubility is less than 498 mg/g.

Question: And the Solubility ([1]; in poloxamer 124)?
Answer: The Solubility was less than 41 mg/g.

Question: What about the Solubility ([1]; in propylene glycol) of the same compound?
Answer: The Solubility was greater than 337 mg/g.

Question: And the Solubility ([1]; in sesame oil)?
Answer: Its Solubility is less than 80 mg/g.

Question: What about the ABT-263 solubility ([2]; C8LL (Capmul PG-8/Labrafil M 1944 CS/Labrasol) 40:40:20 by weight) of the same compound?
Answer: The ABT-263 solubility was “✓”.

Question: And the ABT-263 solubility ([2]; C12LT (Capmul PG-12/Labrafil M 1944 CS/Tween 80) 30:40:30 by weight)?
Answer: Its ABT-263 solubility is “✓”.

Question: What about the ABT-263 solubility ([2]; C12LT (Capmul PG-12/Labrafil M 1944 CS/Tween 80) 35:40:25 by weight) of the same compound?
Answer: Its ABT-263 solubility is “✓”.

Question: What about the ABT-263 solubility ([2]; C12LT (Capmul PG-12/Labrafil M 1944 CS/Tween 80) 40:30:30 by weight) of the same compound?
Answer: Its ABT-263 solubility is “✓”.

Question: And the ABT-263 solubility ([2]; C12LT (Capmul PG-12/Labrafil M 1944 CS/Tween 80) 45:30:25 by weight)?
Answer: The ABT-263 solubility was “✓”.

Question: What about the ABT-263 solubility ([2]; ILC (Imwitor 742/Labrafil M 1944 CS/Cremophor RH40) 50:30:20 by weight, listed as ABT-263 bis-HCl salt) of the same compound?
Answer: Its ABT-263 solubility is “✓”.

Question: And the ABT-263 solubility ([2]; ILC (Imwitor 742/Labrafil M 1944 CS/Cremophor RH40) 50:40:10 by weight, listed as ABT-263 bis-HCl salt)?
Answer: The ABT-263 solubility was “✓”.

Question: What about the ABT-263 solubility ([2]; ILC (Imwitor 742/Labrafil M 1944 CS/Cremophor RH40) 60:30:10 by weight, listed as ABT-263 bis-HCl salt) of the same compound?
Answer: The ABT-263 solubility was “✓”.

Question: And the ABT-263 solubility ([2]; ILL (Imwitor 742/Labrafil M 1944 CS/Labrasol) 40:40:20 by weight, listed as ABT-263 bis-HCl salt)?
Answer: Its ABT-263 solubility is “✓”.

Question: And the ABT-263 solubility ([2]; ILL (Imwitor 742/Labrafil M 1944 CS/Labrasol) 50:30:20 by weight, listed as ABT-263 bis-HCl salt)?
Answer: The ABT-263 solubility was “✓”.

Question: What about the ABT-263 solubility ([2]; ILL (Imwitor 742/Labrafil M 1944 CS/Labrasol) 50:40:10 by weight, listed as ABT-263 bis-HCl salt) of the same compound?
Answer: The ABT-263 solubility was “✓”.

Question: And the ABT-263 solubility ([2]; ILL (Imwitor 742/Labrafil M 1944 CS/Labrasol) 60:30:10 by weight, listed as ABT-263 bis-HCl salt)?
Answer: The ABT-263 solubility was “✓”.

Question: What about the ABT-263 solubility ([2]; LIT (Labrafil M 1944 CS/Imwitor 742/Tween 80) 30:40:30 by weight, listed as ABT-263 bis-HCl salt) of the same compound?
Answer: Its ABT-263 solubility is “✓”.

Question: What about the ABT-263 solubility ([2]; LIT (Labrafil M 1944 CS/Imwitor 742/Tween 80) 40:30:30 by weight, listed as ABT-263 bis-HCl salt) of the same compound?
Answer: The ABT-263 solubility was “✓”.

Question: And the ABT-263 solubility ([2]; LLL (Lauroglycol 90/Labrafil M 1944 CS/Labrasol) 40:40:20 by weight)?
Answer: Its ABT-263 solubility is “✓”.

Question: And the ABT-263 solubility ([2]; LLL (Lauroglycol 90/Labrafil M 1944 CS/Labrasol) 50:30:20 by weight)?
Answer: Its ABT-263 solubility is “✓”.

Question: What about the ABT-263 solubility ([2]; LLL (Lauroglycol 90/Labrafil M 1944 CS/Labrasol) 50:40:10 by weight, listed as ABT-263 bis-HCl salt) of the same compound?
Answer: The ABT-263 solubility was “✓”.

Question: And the ABT-263 solubility ([2]; LLL (Lauroglycol 90/Labrafil M 1944 CS/Labrasol) 60:30:10 by weight, listed as ABT-263 bis-HCl salt)?
Answer: The ABT-263 solubility was “✓”.

Question: And the ABT-263 solubility ([2]; LOT (Labrafil M 1944 CS/oleic acid/Tween 80) 30:40:30 by weight)?
Answer: Its ABT-263 solubility is “✓”.

Question: And the ABT-263 solubility ([2]; LOT (Labrafil M 1944 CS/oleic acid/Tween 80) 30:45:25 by weight)?
Answer: The ABT-263 solubility was “✓”.

Question: What about the ABT-263 solubility ([2]; LOT (Labrafil M 1944 CS/oleic acid/Tween 80) 40:30:30 by weight) of the same compound?
Answer: Its ABT-263 solubility is “✓”.

Question: What about the ABT-263 solubility ([2]; LOT (Labrafil M 1944 CS/oleic acid/Tween 80) 40:35:25 by weight) of the same compound?
Answer: The ABT-263 solubility was “✓”.

Question: And the ABT-263 solubility ([2]; OLL (oleic acid/Labrafil M 1944 CS/Labrasol) 40:40:20 by weight)?
Answer: The ABT-263 solubility was “✓”.

Question: And the ABT-263 solubility ([2]; OLL (oleic acid/Labrafil M 1944 CS/Labrasol) 50:30:20 by weight)?
Answer: The ABT-263 solubility was “✓”.

Question: And the ABT-263 solubility ([2]; OLL (oleic acid/Labrafil M 1944 CS/Labrasol) 50:40:10 by weight)?
Answer: The ABT-263 solubility was “✓”.

Question: And the ABT-263 solubility ([2]; OLL (oleic acid/Labrafil M 1944 CS/Labrasol) 60:30:10 by weight)?
Answer: Its ABT-263 solubility is “✓”.

Question: And the ABT-263 solubility ([3]; C8LL (Capmul PG-8/Labrafil M 1944 CS/Labrasol) 50:30:20 by weight)?
Answer: The ABT-263 solubility was “X”.

Question: And the ABT-263 solubility ([3]; C8LL (Capmul PG-8/Labrafil M 1944 CS/Labrasol) 50:40:10 by weight)?
Answer: The ABT-263 solubility was “X”.

Question: What about the ABT-263 solubility ([3]; C8LL (Capmul PG-8/Labrafil M 1944 CS/Labrasol) 60:30:10 by weight) of the same compound?
Answer: Its ABT-263 solubility is “X”.

Question: And the ABT-263 solubility ([3]; C8LT (Capmul PG-8/Labrafil M 1944 CS/Tween 80) 30:40:30 by weight)?
Answer: Its ABT-263 solubility is “X”.

Question: And the ABT-263 solubility ([3]; C8LT (Capmul PG-8/Labrafil M 1944 CS/Tween 80) 35:40:25 by weight)?
Answer: Its ABT-263 solubility is “X”.

Question: What about the ABT-263 solubility ([3]; C8LT (Capmul PG-8/Labrafil M 1944 CS/Tween 80) 40:30:30 by weight) of the same compound?
Answer: Its ABT-263 solubility is “X”.

Question: What about the ABT-263 solubility ([3]; C8LT (Capmul PG-8/Labrafil M 1944 CS/Tween 80) 45:30:25 by weight) of the same compound?
Answer: Its ABT-263 solubility is “X”.

From patent publication US20100297194A1, “FORMULATION FOR ORAL ADMINISTRATION OF APOPTOSIS PROMOTER” (priority 2009, published 2010)
